In patent US20210078972A1, “QUINOLINE OR QUINAZOLINE COMPOUND AND APPLICATION THEREOF” (HAIHE BIOPHARMA CO., LTD., priority 2018, published 2021):

Assays:
Format in all cases: biochemical
Flt3 kinase = molecular target: T1, Flt3 kinase (Homo sapiens, UniProt P36888); experiment: Flt3 kinase inhibition, Z'-LYTE FRET; conditions: ATP 500 μM
T1 construct: purchased life PV6253
T1 sequence (P36888 27-993): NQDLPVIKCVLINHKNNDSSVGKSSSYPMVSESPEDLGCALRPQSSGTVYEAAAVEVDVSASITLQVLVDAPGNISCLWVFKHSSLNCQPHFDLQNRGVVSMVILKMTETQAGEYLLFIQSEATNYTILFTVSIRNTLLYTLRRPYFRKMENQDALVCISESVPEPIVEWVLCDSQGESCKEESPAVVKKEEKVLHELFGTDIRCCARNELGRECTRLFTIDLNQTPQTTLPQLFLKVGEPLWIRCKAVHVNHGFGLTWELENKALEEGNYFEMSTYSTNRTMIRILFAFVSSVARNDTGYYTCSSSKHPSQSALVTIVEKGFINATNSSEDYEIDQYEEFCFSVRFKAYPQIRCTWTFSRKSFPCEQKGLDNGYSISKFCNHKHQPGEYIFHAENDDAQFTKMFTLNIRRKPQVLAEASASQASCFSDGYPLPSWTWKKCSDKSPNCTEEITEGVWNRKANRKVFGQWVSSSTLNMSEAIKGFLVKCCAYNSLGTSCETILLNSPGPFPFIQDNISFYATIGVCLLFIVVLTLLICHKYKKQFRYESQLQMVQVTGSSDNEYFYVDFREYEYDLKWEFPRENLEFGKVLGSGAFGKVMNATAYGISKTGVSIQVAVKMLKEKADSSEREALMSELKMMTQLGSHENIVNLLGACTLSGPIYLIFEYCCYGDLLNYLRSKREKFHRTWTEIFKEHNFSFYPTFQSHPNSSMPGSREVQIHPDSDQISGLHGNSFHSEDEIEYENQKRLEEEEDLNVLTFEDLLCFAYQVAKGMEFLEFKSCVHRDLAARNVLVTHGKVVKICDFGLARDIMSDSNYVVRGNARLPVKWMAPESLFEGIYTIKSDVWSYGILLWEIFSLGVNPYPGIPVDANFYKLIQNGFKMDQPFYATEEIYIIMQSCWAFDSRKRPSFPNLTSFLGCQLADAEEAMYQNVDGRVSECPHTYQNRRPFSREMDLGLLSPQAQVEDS
Excerpt: (§1) Detection of the activity of kinase: the inhibitory activities of the compounds against Flt3 kinase (life, PV6253) were detected through a second-order reaction by the Z′-LYTE™ technology (detected by fluorescence, enzyme-coupled form, based on the difference in a sensitivity of phosphorylated and non-phosphorylated polypeptides to proteolytic cleavage), based on the principle of fluorescence resonance energy transfer (FRET), using Z′-LYTE™ FRET peptide substrate (Z′-LYTE™ Tyrosine 2 Peptide Substrate, Invitrogen, PV3191).
Enzymatic reaction: To a 384-well plate were added 5 μL of enzyme-substrate system (50 mM HEPES, pH 7.5, 0.01% BRU-35, 10 mM MgC2, 1 mM EGTA), 2.5 μL of a compound (concentration gradient) and 2.5 μL of a mixed solution of ATP (a final concentration of a substrate Z′-LYTE™ Tyrosine 2 Peptide Substrate was 2 μM, and a final concentration of ATP was 500 μM), and then the plate was incubated at 37° C. in the dark for 1 h.
Detecting reaction: 5 μL of Development Solution (1:64 dilution) was added to each well and the plate was incubated at 37° C. in the dark for 1 h, then 5 μL of Stop Reagent was added.
(§2) The data analysis method is as follows:
(§3) Phosphorylation ratio=1−{(emission ratio×F100%−C100%)/[C0%−C100%+emission ratio×(F100%−F0%)]}×100;
(§4) Inhibition rate=100×(1−compound phosphorylation ratio/negative control phosphorylation ratio).
(§5) The IC50 values were calculated by GraphPad Prism software.

[1] = molecular target: T2, AXL kinase domain recombinant protein (Homo sapiens, UniProt P30530); experiment: AXL kinase inhibition, ELISA; conditions: ATP 5 μM
T2 construct: the AXL kinase domain recombinant protein (eurofins, 14-512); purchased eurofins 14-512
T2 sequence (P30530 536-807 limits assumed): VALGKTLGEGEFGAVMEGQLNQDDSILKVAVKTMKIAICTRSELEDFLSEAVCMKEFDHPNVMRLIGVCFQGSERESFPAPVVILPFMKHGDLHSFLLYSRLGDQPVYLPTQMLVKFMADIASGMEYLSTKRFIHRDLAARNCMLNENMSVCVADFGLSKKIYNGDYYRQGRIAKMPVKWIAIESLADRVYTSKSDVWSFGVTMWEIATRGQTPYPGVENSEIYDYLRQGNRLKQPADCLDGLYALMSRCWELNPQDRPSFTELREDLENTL
Procedure: Detection of the activity of kinase: Enzyme-linked immunosorbent assay (ELISA) technology was used to detect the inhibitory activities of the compounds against the kinase. […] After the liquid in the well was discarded, the plate was washed three times with T-PBS (PBS containing 0.1% Tween-20), 200 μL T-PBS per well, 5 minutes for each time. The enzyme label plate was dried in an oven at 37° C. for 1-2 hours. To each well was added 50 μL of ATP solution diluted with reaction buffer (50 mM HEPES, pH 7.4, 50 mM MgCl2, 0.5 mM MnCl2, 0.2 mM Na3VO4, 1 mM DTT) with a final concentration of 5 μM. […] Two wells with no enzyme for control are required for each experiment. The plate was incubated on a shaker (100 rpm) at 37° C. and reacted for 1 hour. The plate was washed three times with T-PBS. 100 μ/well of primary antibody PY99 dilution was added and the plate was reacted in a shaker at 37° C. for 0.5 hour. The plate was washed three times with T-PBS. 100 μ/well of secondary antibody horseradish peroxidase-labeled goat anti-mouse IgG dilution was added and the plate was reacted in a shaker at 37° C. for 0.5 hour. The plate was washed three times with T-PBS. 2 mg/ml of OPD color solution was added with 100 μ/well (diluted with 0.1 M citric acid-sodium citrate buffer (pH=5.4) containing 0.03% H2O2), and the plate was reacted at 25° C. in the dark for 1-10 minutes. (Ultrasound is required for the dissolution of OPD, and the color solution needs to be prepared for immediate use). 50 μ/well of 2 M H2SO4 was added to stop the reaction, and the wavelength-adjustable enzyme-labeling instrument SPECTRA MAX 190 was used to read the data at a wavelength of 490 nm.
The inhibition rate of the sample was obtained by the following formula: […]
The IC50 values were obtained by regression with the four-parameter method using the software attached to the enzyme-labeling instrument.

AXL kinase = molecular target: T3, AXL kinase (Homo sapiens, UniProt P30530); experiment: AXL kinase inhibition, Z'-LYTE FRET; conditions: ATP 50 μM
T3 construct: purchased eurofins 14-500
T3 sequence (P30530 473-894 limits assumed): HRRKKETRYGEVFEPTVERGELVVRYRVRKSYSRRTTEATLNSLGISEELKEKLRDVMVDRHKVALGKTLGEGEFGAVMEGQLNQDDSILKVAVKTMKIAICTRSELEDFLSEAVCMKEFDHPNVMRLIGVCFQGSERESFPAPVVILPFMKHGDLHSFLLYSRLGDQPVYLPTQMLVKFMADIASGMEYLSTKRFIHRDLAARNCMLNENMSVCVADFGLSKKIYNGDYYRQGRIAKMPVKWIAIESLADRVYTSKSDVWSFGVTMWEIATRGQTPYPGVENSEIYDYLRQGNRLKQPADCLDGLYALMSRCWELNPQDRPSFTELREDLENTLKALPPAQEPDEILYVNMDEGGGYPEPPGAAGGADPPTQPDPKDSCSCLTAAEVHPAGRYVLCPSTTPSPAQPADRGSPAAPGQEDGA
Excerpt: as §1, with “AXL” for “Flt3”, “(eurofins, 14-500)” for “(life, PV6253)”, “6” for “2”, “PV4122).” for “PV3191).”
Enzymatic reaction: To a 384-well plate was added 5 μL of enzyme-substrate system (50 mM HEPES, pH 6.5, 0.01% BRU-35, 10 mM MgC2, 1 mM EGTA, 0.02% NaNA), and 5 nL of a compound (concentration gradient) was transferred thereto using an echo520 ultramicro-liquid pipetting system. After the plate was shaken at room temperature for 10-20 min, 25 nL of ATP (a final concentration of 50 μM) was transferred thereto using the echo520 ultramicro-liquid pipetting system. After shaking and well mixing, the mixture was centrifuged and reacted at 30° C. in the dark for 1.5 h.
as §2, §3, §4, §5

| IC50 (Flt3 kinase) | IC50 [1] | IC50 (AXL kinase) | Structure (SMILES) |
| --- | --- | --- | --- |
|  |  | 4.7 nM | COCCCOc1cc2ncnc(Oc3ccc(NC(=O)c4c(C)n(C)c5ccc(OC(F)(F)F)cc5c4=O)cc3F)c2cc1OC [TL-226, N-(3-fluoro-4-((6-methoxy-7-(3-methoxypropoxy)quinazolin-4-yl)oxy)phenyl)-1,2-dimethyl-4-oxo-6-(trifluoromethoxy)-1,4-dihydroquinoline-3-carboxamide] |
|  |  | 1.5 nM | COc1cc2c(Oc3ccc(NC(=O)c4c(C)n(C)c5ccc(OC(F)(F)F)cc5c4=O)cc3F)ncnc2cc1OCCCN1CCCCC1 [TL-216, N-(3-fluoro-4-((6-methoxy-7-(3-(piperidin-1-yl)propoxy)quinazolin-4-yl)oxy)phenyl)-1,2-dimethyl-4-oxo-6-(trifluoromethoxy)-1,4-dihydroquinoline-3-carboxamide] |
| 4.7 nM | 4.2 nM |  | COCCOc1cc2ncnc(Oc3ccc(NC(=O)c4c(C)n(C)c5ccc(OC(F)(F)F)cc5c4=O)cc3F)c2cc1OCCOC [TL-197, N-(4-((6,7-bis(2-methoxyethoxy)quinazolin-4-yl)oxy)-3-fluorophenyl)-1,2-dimethyl-4-oxo-6-(trifluoromethoxy)-1,4-dihydroquinoline-3-carboxamide] |
|  |  | 1.2 nM | COc1cc2c(Oc3ccc(NC(=O)c4c(C)n(C)c5ccc(OC(F)(F)F)cc5c4=O)cc3F)ncnc2cc1OCCCN1CCN(C)CC1 [TL-238] |
| 5.2 nM | 1.5 nM |  | COc1cc2c(Oc3ccc(NC(=O)c4c(C)n(C)c5ccc(OC(F)(F)F)cc5c4=O)cc3F)ncnc2cc1OCCCN1CCCC1 [TL-212, N-(3-fluoro-4-((6-methoxy-7-(3-(pyrrolidin-1-yl)propoxy)quinazolin-4-yl)oxy)phenyl)-1,2-dimethy 1-4-oxo-6-(trifluoromethoxy)-1,4-dihydroquinoline-3-carboxamide] |
| 25.8 nM | 1.8 nM |  | COCCCOc1cc2c(Oc3ccc(NC(=O)c4c(C)n(C)c5ccc(OC(F)(F)F)cc5c4=O)cc3F)ncnc2cc1OC [TL-199, N-(3-fluoro-4-((7-methoxy-6-(3-methoxypropoxy)quinazolin-4-yl)oxy)phenyl)-1,2-dimethyl-4-oxo-6-(trifluoromethoxy)-1,4-dihydroquinoline-3-carboxamide] |
| 2.3 nM | 2.1 nM |  | COc1cc2ncnc(Oc3ccc(NC(=O)c4c(C)n(C)c5ccc(OC(F)(F)F)cc5c4=O)cc3F)c2cc1OC [TL-198, N-(4-((6,7-dimethoxyquinazolin-4-yl)oxy)-3-fluorophenyl)-1,2-dimethyl-4-oxo-6-(trifluoromethoxy)-1,4-dihydroquinoline-3-carboxamide] |
| 9.5 nM | 1.8 nM |  | COc1cc2c(Oc3ccc(NC(=O)c4c(C)n(C)c5ccc(OC(F)(F)F)cc5c4=O)cc3F)ccnc2cc1OCCCN1CCOCC1 [CCB-310, N-(3-fluoro-4-((6-methoxy-7-(3-morpholinopropoxy)quinolin-4-yl)oxy)phenyl)-1,2-dimethyl-4-oxo-6-(trifluoromethoxy)-1,4-dihydroquinoline-3-carboxamide] |
| 6.4 nM | 2.2 nM |  | COc1cc2c(Oc3ccc(NC(=O)c4c(C)n(C)c5ccc(OC(F)(F)F)cc5c4=O)cc3F)ncnc2cc1OCCN1CCCCC1 [TL-213, N-(3-fluoro-4-((6-methoxy-7-(2-(piperidin-1-yl)ethoxy)quinazolin-4-yl)oxy)phenyl)-1,2-dimethyl-4-oxo-6-(trifluoromethoxy)-1,4-dihydroquinoline-3-carboxamide] |
| 9.2 nM | 2 nM |  | COc1cc2c(Oc3ccc(NC(=O)c4c(C)n(C)c5ccc(OC(F)(F)F)cc5c4=O)cc3F)ncnc2cc1OCCN1CCOCC1 [TL-209, N-(3-fluoro-4-((6-methoxy-7-(2-morpholinoethoxy)quinazolin-4-yl)oxy)phenyl)-1,2-dimethyl-4-ox o-6-(trifluoromethoxy)-1,4-dihydroquinoline-3-carboxamide] |

| Structure (SMILES) | IC50 (Flt3 kinase) | IC50 [1] | IC50 (AXL kinase) |
| --- | --- | --- | --- |
| COCCCCOc1cc2ncnc(Oc3ccc(NC(=O)c4c(C)n(C)c5ccc(OC(F)(F)F)cc5c4=O)cc3F)c2cc1OC [TL-204, N-(3-fluoro-4-((6-methoxy-7-(4-methoxybutoxy)quinazolin-4-yl)oxy)phenyl)-1,2-dimethyl-4-oxo-6-(trifluoromethoxy)-1,4-dihydroquinoline-3-carboxamide] | 11.2 nM | 1.6 nM |  |
